In BindingDB's records for doi:10.1016/s0960-894x(99)00444-8 (The University of Montana, 1999):

Molecular target: Vesicular glutamate transporter 1 (Rattus norvegicus) (UniProt Q62634)
Assay: Compound was evaluated for the binding affinity against glutamate vesicular transport (GVT)

Chain of Vesicular glutamate transporter 1 (Rattus norvegicus) (Q62634 whole entry, looked up): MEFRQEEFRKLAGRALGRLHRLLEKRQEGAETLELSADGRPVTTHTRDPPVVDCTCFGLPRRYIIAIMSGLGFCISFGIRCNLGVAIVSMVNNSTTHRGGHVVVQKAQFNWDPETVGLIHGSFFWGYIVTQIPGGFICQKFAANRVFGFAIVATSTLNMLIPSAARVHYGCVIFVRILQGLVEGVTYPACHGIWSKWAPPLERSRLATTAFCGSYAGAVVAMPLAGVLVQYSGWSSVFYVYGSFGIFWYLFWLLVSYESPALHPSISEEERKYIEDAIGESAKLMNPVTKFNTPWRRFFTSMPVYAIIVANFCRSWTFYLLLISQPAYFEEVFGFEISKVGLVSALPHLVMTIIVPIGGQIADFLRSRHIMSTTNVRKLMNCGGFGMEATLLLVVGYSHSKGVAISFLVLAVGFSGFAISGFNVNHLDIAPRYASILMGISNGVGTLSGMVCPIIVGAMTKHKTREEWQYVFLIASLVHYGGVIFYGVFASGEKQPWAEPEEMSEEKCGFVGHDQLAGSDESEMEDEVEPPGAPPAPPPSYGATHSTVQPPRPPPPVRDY

- Ki: 204 µM
Compound: O=C(O)c1cc(C(=O)O)c2cc(OCc3ccccc3)ccc2n1 [6-Benzyloxy-quinoline-2,4-dicarboxylic acid]
